Reference: patent US20090137662A1, “SYNERGY OF DOPAMINE D2 AND ADENOSINE A2 RECEPTORS ACTIVATES PKA SIGNALING VIA BETA/GAMMA DIMERS” (The Regents of the University of California, priority 2002, published 2009)
Like-named read-outs stand apart in the source and are kept apart here.

Columns and labels:
GFP-RIIβ = conditions: +100 mM EtOH 30 min, unstimulated: Golgi Apparatus
ε-PKC [1] = type: cell-based; conditions: NG 108-15 or CHO cells; Ethanol 200 mM, 30 min; no compound: Perinucleus
Protocol: NG 108-15 or CHO cells were pre-incubated in the presence or absence of the indicated inhibitor for 30 min. (except for GF which was pre-incubated for 1 hour), then further incubated in the absence or presence of 200 mM ethanol for 30 min.

GFP-Cα = type: cell-based; conditions: for Subcellular localization of GFP-Cα: unstimulated: Golgi Apparatus
[2] = tested on: CREB (GAL4-CREB fusion, luciferase reporter); experiment: GAL4-CREB / GAL4-luciferase reporter in NG108-15 cells; type: cell-based; conditions: ethanol exposure
Protocol: Cells are cultured as described in Dohrman et al., Proc Natl Acad Sci USA (1996) 93:10217-10221, and are transfected using Effectene (Qiagene) as described by the manufacturers. […] Luciferase activity is measured using Luciferase Assay System (Promega) and normalized to β-galactosidase activity.
NG108-15 cells are co-transfected with a GAL4-CREB fusion construct and with a second construct containing the DNA binding site of GAL4 fused to luciferase as a reporter gene. […] The ethanol-induced increase in luciferase activity induced was inhibited by Rp-cAMPS but not by the CaMK and PKC inhibitors KN-62 and GF, respectively (FIGS. 15 and 16B).

δ-PKC [3] = experiment: Translocation of δ-PKC in NG108-15 and CHO cells expressing the applicable receptor; type: cell-based
Text: (§1) To determine whether addictive drugs other than ethanol would cause translocation of some proteins, we examine the effects of various receptor agonists and antagonists on ε-PKC δ-PKC or PKA Cα translocation in NG108-15 and CHO cells expressing the applicable receptor. […] Adenosine is also implicated in some behavioral effects of ethanol.
(§2) The mechanisms underlying ethanol- and dopamine-mediated translocation of ε-PKC and δ-PKC were studied by altering the activity of various molecules that might be in the pathways leading to translocation.

[4] = tested on: Ethanol-indicative proteins in NG108 cells; conditions: ethanol 10 minutes or 12-48 hours
Text: (§3) The particular protein and cellular subregion(s) selected for examination can vary depending on the cell type to be used in a particular method. Cells used in the methods of the invention are of a cell type in which the selected protein is predominantly present in a different amount in a particular cellular subregion of ethanol-exposed cells compared to ethanol-unexposed cells. […] One of skill in the art can readily determine the intracellular distribution of other ethanol indicative proteins by staining ethanol-exposed and ethanol-unexposed cells of various cell types with stains (e.g., antibodies) specific for such proteins.

[5] = tested on: Ethanol-indicative proteins in lymphocytes; conditions: Lymphocyte; ethanol-exposed; EUC origin Cytoplasm
Text: as §3

[6] = tested on: Ethanol-indicative proteins in CHO cells
Text: as §3

[7] = tested on: Ethanol-indicative proteins in Purkinje cells; conditions: Purkinje cells in brain section; ethanol 72 hr exposure; EUC origin Cytoplasm
Text: as §3

δ-PKC [8] = type: cell-based; conditions: NG108-15 cells
Protocol: (§4) Naive NG108-15 cells were, therefore, incubated in for ten (10) min. in 100 nM PMA, to then determine localization of δ-PKC and ε-PKC.

ε-PKC [9] = type: cell-based; conditions: NG108-15 cells; for ε-PKC (% cells) Cytoplasmic staining / ε-PKC (% cells) Perinuclear staining: EtOH exposure, n = 5; for ε-PKC (% cells) Cytoplasmic staining: control 5 ± 2; for ε-PKC (% cells) Perinuclear staining: control 95 ± 2
Protocol: as §4

PKCδ-GFP = conditions: +100 mM EtOH/30 min; for Subcellular Localization of PKCδ-GFP: unstimulated: Golgi Apparatus
ε-PKC [10] = experiment: Translocation of ε-PKC in NG108-15 and CHO cells expressing the applicable receptor; type: cell-based; conditions: NG108-15 cells expressing the applicable receptor; 200 mM Ethanol, 50 nM NPA, 1 μM D-ala-D-leu-enkephalin, 2 μM R(+) methanindamide, 20 μM Carbachol, 10^−5 M UK14304, 20 nM CCPA, 100 nM CGS-21680 HCl; None: Perinucleus
Text: as §1, §2

[11] = tested on: CRE-regulated luciferase expression; experiment: CRE-luciferase reporter in NG108-15 cells; type: cell-based; conditions: NG108-15 cells; for increase in luciferase activity above control: 200 mM ethanol
Protocol: Luciferase is used as a reporter gene in a transient expression system to identify substances that alter the effects of ethanol on CRE-regulated gene expression. Cells are cultured as described in Dohrman et al., Proc Natl Acad Sci USA (1996) 93:10217-10221, and are transfected using Effectene (Qiagene) as described by the manufacturers. Twenty-four hours after transfection the cells are treated with 200 mM ethanol for 30 min. to 36 hr. Luciferase activity is measured using Luciferase Assay System (Promega) and normalized to β-galactosidase activity.
(§5) NG108-15 cells were co-transfected with a fusion construct containing the cAMP response element (CRE) fused to luciferase as a reporter gene (Stratagene).
Since the ERK/MAPK pathway may regulate CREB phosphorylation and CRE-mediated gene expression, NG108-15 cells having the luciferase construct were co-incubated with 200 mM ethanol and a MEK inhibitor (PD98059 (2 nM, Calbiochem, San Diego, Calif.) or U0126 (1 μM, Calbiochem, San Diego, Calif.)) or a dominant negative MEK construct (DN-MEK, Dr. R. Seger) in which Lys-97 was replaced by alanine.
as §5

[12] = NG108-15/D2R, +100 mM EtOH/30 min or 50 nM NPA/30 min
[13] = ethanol 10′ exposure, EUC origin Perinucleus

Compound: CCO [Ethanol, ethanol]
- Subcellular Localization of GFP-RIIβ (GFP-RIIβ; 1° Glia): Golgi Apparatus
- Subcellular Localization of GFP-RIIβ (GFP-RIIβ; 1° Neurons): Golgi Apparatus
- Subcellular Localization of GFP-RIIβ (GFP-RIIβ; NG108-15/D2R): Golgi Apparatus
- Predominant ε-PKC Localization (ε-PKC [1]): Cytoplasm
- Subcellular localization of GFP-Cα (GFP-Cα; 1° Glia (rat hippocampus culture), +100 mM EtOH/30 min or 50 nM NPA/30 min): Nucleus
- cells showing the stated localization of GFP-Cα (GFP-Cα; 1° Glia, +100 mM EtOH/30 min or 50 nM NPA/30 min): [<20% cells]
- Subcellular localization of GFP-Cα (GFP-Cα; 1° Neurons (rat hippocampus culture), +100 mM EtOH/30 min): Nucleus
- cells showing the stated localization of GFP-Cα (GFP-Cα; 1° Neurons, +100 mM EtOH/30 min): [>50% cells]
- cells showing the stated localization of GFP-Cα (GFP-Cα; [12]): [>50% cells]
- Subcellular localization of GFP-Cα (GFP-Cα; [12]): Nucleus
- increase of expression of luciferase (GAL4-CREB / GAL4-luciferase) [2]: approximately 2 fold
- Predominant Localization of δ-PKC (agent alone) (δ-PKC [3]; 200 mM Ethanol or 50 nM NPA, None: Golgi): Perinucleus &
- Translocation of δ PKC and δ PKC, agent alone (δ-PKC [3]; D2-receptor-expressing NG108-15 and CHO cells, 10^−9 M NPA or 25 mM ethanol alone): neither agent alone caused translocation
- Cellular subregion in which the protein is predominantly present, EEC (Destination): RIIβ ([4]; EUC origin Golgi): Nucleus
- Cellular subregion in which the protein is predominantly present, EEC (Destination): δ-PKC ([4]; EUC origin Golgi): Perinucleus and nucleus
- Cellular subregion in which the protein is predominantly present, EEC (Destination): Protein Phosphatase I and IIB ([4]; EUC origin Nucleus): Cytoplasm
- Cellular subregion in which the protein is predominantly present, EEC (Destination): RACK 2 (β′COP) ([4]; EUC origin Perinucleus): Cytoplasm
- Cellular subregion in which the protein is predominantly present, EEC (Destination): ε-PKC ([4]; EUC origin Perinucleus): Cytoplasm
- Cellular subregion in which the protein is predominantly present, EEC (Destination): δ-PKC [5]: Cytoplasm
- Cellular subregion in which the protein is predominantly present, EEC (Destination): ε-PKC [5]: Cytoplasm
- Cellular subregion in which the protein is predominantly present, EEC (Destination): RACK 2 (β′COP) [6, 13]: Cytoplasm
- Cellular subregion in which the protein is predominantly present, EEC (Destination): ε-PKC [6, 13]: Cytoplasm
- Cellular subregion in which the protein is predominantly present, EEC (Destination): δ-PKC ([6]; ethanol 10 minutes or 12-48 hours, EUC origin Golgi): Perinucleus and nucleus
- Cellular subregion in which the protein is predominantly present, EEC (Destination): ε-PKC [7]: Not detectable
- ethanol-induced altered localization of δ-PKC (δ-PKC [8]; 25 mM ethanol, 4 days): also observed
- δ-PKC (% cells) Golgi Staining (δ-PKC [8]; 200 mM EtOH 48 hours, n = 5, control 74 ± 7): 2 ± 2 % cells
- localization of δ-PKC (δ-PKC [8]; 200 mM EtOH, 48 hours): localized to the perinucleus and nucleus and absent from the Golgi
- ethanol-induced altered localization of ε-PKC (ε-PKC [9]; 25 mM ethanol, 4 days): also observed
- ε-PKC (% cells) Cytoplasmic staining (ε-PKC [9]; listed as EtOH): 94 ± 2 % cells
- ε-PKC (% cells) Cytoplasmic staining (ε-PKC [9]; listed as ethanol): more than 90 % cells
- ε-PKC (% cells) Perinuclear staining (ε-PKC [9]; listed as EtOH): 94 ± 3 % cells
- ε-PKC (% cells) Perinuclear staining (ε-PKC [9]; listed as ethanol): more than 90 % cells
- Subcellular Localization of PKCδ-GFP (PKCδ-GFP; 1° Glia): Golgi Apparatus
- cells showing the stated localization of PKCδ-GFP (PKCδ-GFP; NG108-15/D2R): [>50% cells]
- Subcellular Localization of PKCδ-GFP (PKCδ-GFP; NG108-15/D2R): Perinucleus/
- Predominant Localization of ε-PKC (agent alone) (ε-PKC [10]): Cytoplasm
- increase in luciferase activity ([11]; 50 mM ethanol, 14-hour exposure): about 25%
- increase in luciferase activity above control ([11]; 4 hour exposure): 29±6%
- increase in luciferase activity above control ([11]; 14 hours of exposure): 79±4%
- increase of expression of luciferase (CRE-luciferase) ([11]; ethanol exposure): more than 2 fold
